Measured values taken from patent publication US12686690B2, “Macrocyclic urea orexin receptor agonists” (Merck Sharp & Dohme LLC, priority 2020, dated 2026).

Target: T1, hOX2R (Homo sapiens, UniProt O43614)
T1 construct: expressed in transfected cells; host or cells: CHO cells (G418 selection)
T1 sequence (O43614 1-444): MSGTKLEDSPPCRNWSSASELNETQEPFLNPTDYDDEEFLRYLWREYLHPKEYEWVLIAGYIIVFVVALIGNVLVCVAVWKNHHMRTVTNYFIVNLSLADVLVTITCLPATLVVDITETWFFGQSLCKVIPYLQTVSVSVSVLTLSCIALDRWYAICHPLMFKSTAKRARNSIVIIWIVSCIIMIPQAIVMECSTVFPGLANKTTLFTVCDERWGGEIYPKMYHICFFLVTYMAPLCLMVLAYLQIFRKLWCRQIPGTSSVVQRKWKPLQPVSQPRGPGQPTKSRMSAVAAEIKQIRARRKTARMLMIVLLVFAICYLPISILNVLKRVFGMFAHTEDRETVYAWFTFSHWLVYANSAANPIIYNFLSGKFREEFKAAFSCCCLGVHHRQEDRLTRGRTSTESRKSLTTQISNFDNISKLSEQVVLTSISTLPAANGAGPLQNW
Experiment: hOX2R IPone assay (orexin receptor agonism)
Format: cell-based
Details: IPone readout; for hOX2R_Ipone max %act: maximal activation; for EC50: orexin receptor agonist, read-out: hOX2R_IPone EC50

Row | hOX2R_Ipone max %act [%] | EC50 [µM] | Structure (SMILES)
1 | 97.7 | 0.0605 | CCN1C(=O)N[C@@H](C(F)(F)F)CCCCOc2nc(cn3ccnc23)-c2cc(ncc2OC)C1C(F)(F)F (single isomer, unassigned) [Example 39A]
2 | 100.1 | 0.00262 | CCN1C(=O)N[C@@H](CCC(F)(F)F)CCOCCOc2nc(cn3ncnc23)-c2cc(ncc2OC)[C@H]1C [Example 164, (3R,7S,E)-4-ethyl-25-methoxy-3-methyl-7-(3,3,3-trifluoropropyl)-10,13-dioxa-4,6-diaza-1(6,8)-[1,2,4]triazolo[1,5-a]pyrazina-2(4,2)-pyridinacyclotridecaphan-5-one]
3 | 105.4 | 0.0013 | CCN1C(=O)NC(CCC(F)F)CCCCCOc2nc(cn3ccnc23)-c2cc(ncc2C2CC2)[C@H]1C (stereo partly drawn) [Example 197, (3R,E)-25-cyclopropyl-7-(3,3-difluoropropyl)-4-ethyl-3-methyl-13-oxa-4,6-diaza-1(6,8)-imidazo[1,2-a]pyrazina-2(4,2)-pyridina-cyclotridecaphan-5-one]
4 | 100.2 | 0.001 | CCN1C(=O)NC(CC2(F)CC2)CCCCCOc2nc(cn3ccnc23)-c2cc(ncc2OC)[C@H]1C (stereo partly drawn) [Example 183, (3R,E)-4-ethyl-7-((1-fluorocyclopropyl)methyl)-25-methoxy-3-methyl-13-oxa-4,6-diaza-1(6,8)-imidazo[1,2-a]pyrazina-2(4,2)-pyridinacyclotridecaphan-5-one]
5 | 61.55 | 0.76 | CCN1C(=O)N[C@@H](C)/C=C/CC2(CCOCC2)COc2nc(cn3ccnc23)-c2cc(ncc2OC)[C@H]1C [Example 222, (3′R,7'S,7′E,8′E)-4′-ethyl-5′-methoxy-3′,7′-dimethyl-2,3,5,6-tetrahydrospiro[pyran-4,11′-13-oxa-4,6-diaza-1(6,8)-imidazo[1,2-a]pyrazina-2(4,2)-pyridinacyclotridecaphanen]-8′-en-5′-one]
6 | 99.7 | 0.0086 | CCN1C(=O)NC(CCC(F)(F)F)C(C)CCCOc2nc(cn3ccnc23)-c2cccc(c2)[C@H]1C (single isomer, unassigned) [Example 42C]
7 | 100.4 | 0.0521 | CCN1C(=O)NC(CCCOC)CCCCCOc2nc(cn3ccnc23)-c2cc(ncc2OC)[C@H]1C (single isomer, unassigned) [Example 60A]
8 | 101.7 | 0.026 | CCN1C(=O)N[C@@H](CCC(F)(F)F)CCCCCOc2nc(cn3ccnc23)-c2nc(ncc2OC)[C@@H]1C [Example 117A, (12S,16R)-13-ethyl-8-methoxy-12-methyl-16-(3,3,3-trifluoropropyl)-12,13,16,17,18,19,20,21-octahydro-6,23:11,7-di(azeno)imidazo[2,1-c][1,4,10,13,15]oxatetraazacyclohenicosin-14(15H)-one]
